The target of one experiment is T1, CD36 (Rattus norvegicus, UniProt Q07969).
T1 construct: from tissue; host or cells: Heart (cardiac membranes) of Sprague Dawley rats from Charles River
The experiment in a line: Competition binding of photoactivatable [125I]-Tyr-Bpa-Ala-Hexarelin to CD36 in rat cardiac membranes. Conditions: competition with [125I]-Tyr-Bpa-Ala-Hexarelin, rat heart membranes; for IC50: read-out: IC50 (μM), binding affinity for CD36. The method, then: Hearts from Sprague Dawley rats (300-325 g) from Charles River were cut into small pieces and homogenized with a Polytron® at low speed, 3×15 sec in buffer A (10 mM NaHCO3, 5 mM NaN3, 10 μM Pefabloc®, 0.1 μM Aprotinin, 1 μM Pepstatin A, 1 μM Leupeptin, pH 7.0) at a concentration of […] of tissue. The homogenate was first centrifuged at 8,700×g for 20 min in a Sorvall® centrifuge and the supernatant was collected on ice. The pellet was resuspended and re-homogenized with a Glass-Teflon® Potter by 5 strokes. This homogenate was recentrifuged at 8,700×g for 10 min and the resulting supernatant was combined with the first collected supernatant. The combined supernatant was centrifuged at 35,000×g for 20 min. The pellet fraction obtained was resuspended in Buffer B (20 mM Tris-maleate, 0.6M KCl, pH 6.8) in a volume corresponding to 20 mL/g of fresh tissue using a glass homogenizer with a Teflon pestle. The resulting suspension was centrifuged again at 35,000×g for 60 min. and the pellet fraction obtained was resuspended in Buffer C (10 mM Tris/HCl buffer pH 7.4) and thoroughly homogenized in a glass with a Teflon® pestle (20 ml/g of fresh tissue). This suspension was submitted to another centrifugation at 35,000×g for 60 min. The collected pellet was resuspended in 50 mM Tris/HCl buffer pH 7.4) containing 2 mM EGTA in a final volume corresponding to 1-2 mL/g of fresh tissue. The membrane preparation obtained was frozen at −80° C. Protein concentration was determined using the bicinchoninic acid (BCA) method, employing BSA as standard.
The reaction was started by adding 3 nmol of H2O2 for 5 min at room temperature. This step was repeated twice with a period of 5 min of incubation for each addition. The reaction was stopped by diluting the mixture with 1 mL of 0.1% TFA. The radioiodinated peptide was purified by HPLC on a reverse-phase Vydac® C18 column with a 60-min linear gradient from 20% to 50% of acetonitrile in 0.1% TFA. The eluted radiolabelled tracer was collected, aliquoted (50×10^6 cpm/fraction) and stored at −80° C.
Binding studies with MPE-298 were done with increasing concentrations from 0.01 to 5 μM of competition ligands. Nonspecific binding was defined as binding not displaced by 50 μM corresponding peptide. All peptide containing solutions were diluted in Buffer B. Buffer A and B were degassed under vacuum, and used in capped tubes in order to minimize lipid peroxidation. Before the incubation period, all tubes were put under a low flow of nitrogen. All material was kept on ice and the binding assay was performed in darkness. After an incubation period of 60 min at 22° C. (vortexing every 15 min), membranes were submitted to irradiation with UV lamps (365 nm) for 15 min at 4° C. After centrifugation at 12,000×g for 15 minutes, the pellets were resuspended in 40 μl of sample buffer (62 mM Tris-HCl, pH 6.8, 2% SDS, 10% glycerol, 15% 2-mercaptoethanol, and 0.05% bromophenol blue), and boiled for 5 min prior to being subjected to electrophoresis. Proteins (50 μg/40 μl) were separated on a 7.5% SDS-PAGE Bio-Rad® Mini-Protean electrophoresis system (150 V for 1 h). The gels resulting from SDS/PAGE were fixed, colored in Coomassie Brilliant Blue R-250, dried, exposed to a storage phosphor intensifying screen (Amersham Biosciences), and analysed using a Typhoon® PhosphorImager (GE Healthcare Life Sciences®). […] The curves were analysed by using software package (Graphpad® prism version 7.0).

Experiment [1] deals with R-FSL-1 (TLR2 agonist)-induced NO production in RAW macrophage cell line. In words: Nitric oxide (NO) production induced by TLR2 agonist R-FSL-1 in RAW macrophage cell line. The format is cell-based, murine. Conditions: RAW macrophages; for suppression of NO production compared with positive control MPE-001 at the same concentration / suppression of R-FSL-1-mediated NO production at 10^−7 M: 10^−7 M, FIG. 4F; for suppression of R-FSL-1-mediated NO production at 10^−7 M: further analyses; for R-FSL-1-mediated NO production, % of control: control = R-FSL-1 only, noticeable reduction without reaching significance (P<0.01); for suppression of R-FSL-1-mediated NO production: at the concentration tested (10^−6 or 10^−7 M), FIGS. 4A to 4F. The method, then: The murine RAW1 macrophage cell line was obtained from American Type Cell Collection (ATCC #TIB-71), seeded at 1.5×10^5 cells/well in Dulbecco's Modified Eagle's medium (DMEM) containing 100 U/mL of penicillin (Pen) and 100 μg/mL of streptomycin (Strep) on a 48-well plate (Costar® #3548), and incubated at 37° C. with 5% CO2. After 2 h, the cell culture medium of adhered cells was removed and replaced by DMEM-Pen/Strep medium containing 0.2% of bovine serum albumin (BSA), and supplemented with the cyclic peptides at a concentration of 10^−6 or 10^−7 M. MPE-001 (DBG178, His-D-Trp-Ala-AzaTyr-D-Phe-Lys-NH2) and [azaLys^6]-GHRP-6 (His-D-Trp-Ala-Trp-D-Phe-azaLys-NH2, negative control) at 10^−6 M were used as positive and negative controls, respectively. After 1 h pre-incubation, the cells were stimulated overnight using the TLR2 ligand fibroblast-stimulating lipopeptide (R-FSL-1) (Invivogen® #L7022) at a concentration of 300 ng/mL. Supernatants were then collected for nitrite production analysis by fluorescence using 2,3-diaminonaphthalene (DAN). Briefly, 25 μL of sample was incubated with 0.5 μg of DAN in a 100 μL final volume of phosphate buffer (50 mM, pH 7.5) at room temperature in the dark. After 15 min, the reaction was stopped with 20 μL of NaOH (2.8N) and the plate was read using a fluorescence plate reader (TECAN® Safire, λexc 365 nm and λem 430 nm).

The subject of experiment [2] is R-FSL-1 (TLR2 agonist)-induced TNF-α and CCL-2 release in RAW macrophages. In words: R-FSL-1-induced TNF-α and CCL-2 release in RAW macrophages. Particulars: 10^−7 M. Format: cell-based, murine. The method, then: The murine RAW1 macrophage cell line was obtained from American Type Cell Collection (ATCC #TIB-71). RAW cells were seeded at 150,000 cells per well in a 48-well plate (Costar® #3548) and weaned overnight in medium (DMEM supplemented 1% penicillin/streptomycin) at 37° C. with 5% CO2. The next day, the medium was changed to DMEM-1% penicillin/streptomycin supplemented with 0.2% BSA. The cells were first pretreated with 300 μL of azapeptides DBG178 (MPE-133, reference standard), 25 (MPE-210), 26 (MPE-266), 28 (MPE-268), 32 (MPE-267), 33 (MPE-298), 38 (MPE-308), 35 (MPE-300), 39 (MPE-310) and azaLys6-GHRP-6 (as negative control) at 10^-7M for 30 min. Then, […] of the TLR2 agonist, R-FSL-1 (300 ng/ml final concentration, R-FSL-1, Invivogen® #L7022) was added for 4 h period of incubation at 37° C. with 5% CO2. At the end of the incubation period, media were collected and stored at −80° C. for TNF-α and CCL-2 assays using ELISA kits (EbioScience® #88-7391 and #88-7324). Results were analyzed by analysis of variance (ANOVA) with post hoc comparisons using Dunnett's test with a statistical software package (Graph Pad Prism® version 7.0). P<0.05 was considered statistically significant.

Experiment [3] has the same test system. The experiment is described as above. Format: cell-based, murine. Conditions: 10^−7 M. This is another data set of the same source.
In a further experiment the test system is apoE−/− mice. In words: Murine atherosclerosis model (apoE−/− mice on atherogenic diet), aortic lesions. The format is in vivo. Particulars: 300 nmol/kg daily s.c. for 8 weeks. The method, then: Experiments were performed in male apoE−/− mice fed an atherogenic diet (D12108, cholate-free AIN-76A semi-purified diet, Research Diets Inc., New Brunswick, NJ) from 4 weeks of age. MPE-298 (300 nmol/kg), MPE-267 (300 nmol/kg) or vehicle (0.9% NaCl), were administered by daily by subcutaneous (s.c.) injections for 8 weeks, from 12 weeks of age, as shown schematically in FIG. 8A.

Structures are written as SMILES.

T1 sequence (Q07969 whole entry): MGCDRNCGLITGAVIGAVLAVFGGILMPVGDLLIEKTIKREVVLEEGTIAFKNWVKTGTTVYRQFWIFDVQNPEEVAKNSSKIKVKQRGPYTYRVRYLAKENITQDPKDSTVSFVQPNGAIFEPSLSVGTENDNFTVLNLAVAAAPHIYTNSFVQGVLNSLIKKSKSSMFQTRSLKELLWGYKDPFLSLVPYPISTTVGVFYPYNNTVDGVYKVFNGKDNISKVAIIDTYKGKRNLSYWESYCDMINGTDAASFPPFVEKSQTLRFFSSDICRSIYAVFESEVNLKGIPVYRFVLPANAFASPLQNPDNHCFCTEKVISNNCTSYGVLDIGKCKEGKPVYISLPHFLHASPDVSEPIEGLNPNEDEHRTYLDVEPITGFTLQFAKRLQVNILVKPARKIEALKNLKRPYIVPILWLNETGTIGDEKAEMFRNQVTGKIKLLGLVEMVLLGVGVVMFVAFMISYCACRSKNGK

For the compound `C=CCN1CC#CCN(NC(C)=O)C(=O)N[C@H](Cc2c[nH]c3ccccc23)C(=O)N[C@@H](C)C(=O)N[C@@H](Cc2c[nH]c3ccccc23)C(=O)N[C@H](Cc2ccccc2)C(=O)N[C@H](C(N)=O)CCCC1` [MPE-310], at CD36, the IC50 (in general, the concentration that inhibits the measured activity by half) was found to be 0.89 µM. In experiment [1], the “suppression of NO production compared with positive control MPE-001 at the same concentration” value is “more important”; the “suppression of R-FSL-1-mediated NO production at 10^−7 M” value is “significant suppression”; the “R-FSL-1-mediated NO production, % of control” value is given as “about 80 % of control”. For the same compound, in experiment [2], the “effect on R-FSL-1-induced CCL-2 release” value is on record as “significant inhibitory effect” and the “effect on R-FSL-1-induced TNF-α release” value is “significant inhibitory effect”. The “inhibitory effect on R-FSL-1-induced CCL-2 release compared with reference standard DBG178 (MPE-001)” value in experiment [3] is listed as “significantly higher”.

Consider `C=CCN1CC#CCN(N)C(=O)N[C@H](Cc2c[nH]c3ccccc23)C(=O)N[C@@H](C)C(=O)N[C@@H](Cc2c[nH]c3ccccc23)C(=O)N[C@H](Cc2ccccc2)C(=O)N[C@H](C(N)=O)CCCC1` [MPE-268], for which the “binding to CD36 (in words)” value on CD36 is “no significant binding affinity”. In experiment [1], the “suppression of NO production compared with positive control MPE-001 at the same concentration” value is “more important”; the “suppression of R-FSL-1-mediated NO production at 10^−7 M” value is reported as “significant suppression”; the “R-FSL-1-mediated NO production, % of control” value is given as “about 80 % of control”. In addition, in experiment [2], the “effect on R-FSL-1-induced CCL-2 release” value is “no significant effect” and the “effect on R-FSL-1-induced TNF-α release” value is recorded as “no significant effect”.

For `C=CCN1CC#CCN(NC(=O)[C@H](C)N)C(=O)N[C@@H](C)C(=O)N[C@@H](Cc2c[nH]c3ccccc23)C(=O)N[C@H](Cc2ccccc2)C(=O)N[C@H](C(N)=O)CCCC1` [MPE-267], at CD36, the IC50 was found to be 0.24 µM. The “suppression of R-FSL-1-mediated NO production” value in experiment [1] is “significant suppression”. Besides, in experiment [2], the “effect on R-FSL-1-induced CCL-2 release” value is listed as “significant inhibitory effect” and the “effect on R-FSL-1-induced TNF-α release” value is “significant inhibitory effect”. Besides, in the experiment on apoE−/− mice, the “reduction of aortic lesions relative to 0.9% NaCl (vehicle)” value is 28%.

In the case of `C=CCN1CC#CCN(NC(=O)[C@@H](Cc2c[nH]c3ccccc23)NC(=O)[C@@H](N)Cc2cnc[nH]2)C(=O)N[C@@H](Cc2c[nH]c3ccccc23)C(=O)N[C@H](Cc2ccccc2)C(=O)N[C@H](C(N)=O)CCCC1` [MPE-266], the IC50 at CD36 is 0.68 µM. The “suppression of R-FSL-1-mediated NO production” value in experiment [1] is reported as “significant suppression”. Also, in experiment [2], the “effect on R-FSL-1-induced CCL-2 release” value is on record as “significant inhibitory effect” and the “effect on R-FSL-1-induced TNF-α release” value was “significant inhibitory effect”.

The values are drawn from patent publication US11879021B2, “Cyclic peptides and uses thereof” (UNIVERSITÉ DE MONTRÉAL, priority 2016, dated 2024).
